Laboratory results as given in patent US11033527B2, “Non-hormonal treatment of the genitourinary syndrome of menopause” (IMMUGEN PHARMA LLC, priority 2018, dated 2021).

Assays:
vaginal tissue construct = assay: microarray analysis of differential gene expression (Affymetrix Human Gene 1.0 ST arrays), tissues treated for seven days via culture medium; assay type: cell-based; details: for VEGFA Fold Change: gene vascular endothelial growth factor A
From the text: The data from the Affymetrix Human Gene 1.0 ST arrays were normalized using the Robust Multiarray Average (RMA) algorithm and a Chip Definition File (CDF) that maps the probes on the array to unique Entrez Gene identifiers. The result is a matrix in which each column corresponds to a sample. The expression values are log 2-transformed by default.
By using a fold change >1.5, an analysis of differentially expressed genes was done to identify those genes which were involved in the cornified envelope, keratinocyte differentiation, cell differentiation, epidermis development, epithelial cell differentiation, junctional proteins and signaling, immune response and innate immune response.

EpiVaginal tissues = assay: macrophage infiltration in treated EpiVaginal tissues (barrier function), four hours in the presence of TNF-α; assay type: cell-based; details: vs. 28% into the untreated tissue; macrophages cultured with the tissue for four hours in the presence of TNF-α
From the text: FIG. 1 is a graph showing macrophage infiltration in hormone (estrogen) and L759,633-treated EpiVaginal tissues. L759,633 had the most striking effect on macrophage infiltration: only 6% of cells infiltrated into the tissue past 90 μm (vs. 28% into the untreated tissue, p<0.006 ANOVA). […] U=untreated control; E=estradiol; P=progesterone; and IMG=the cannabinoid L759,633.
Many of the above-noted genes are differentially regulated by estradiol in menopausal tissue. […] With respect to the barrier function, only 6% of macrophages which had been cultured with the tissue for four hours in the presence of TNF-α were capable of infiltrating into the tissue past 90 um (vs. 28% into the untreated tissue, p<0.006 ANOVA). […] This would indicate that the increased gene expression of the proteins involved with cross-linking of the keratin fibers, filagrins and desmosomal cadherins are all contributing to the fortification of the vaginal mucosa which would prevent the infiltration of pathogens and prevent the loss of solutes and water from within the tissue.

## C[C@]12CC[C@@H]3c4ccc(O)cc4CC[C@H]3[C@@H]1CC[C@@H]2O [Estradiol, 17β-estradiol, reference compound]
Vaginal tissue construct
  SPRR2D Fold Change: 2.793 fold
  WFDC12 Fold Change: 3.103 fold
  VEGFA Fold Change: 1.2 fold
Vaginal tissue construct; gene CD74 molecule
  CD74 Expr Fold Change: −1.89 fold
Vaginal tissue construct; gene CD244 molecule
  CD244 Expr Fold Change: 2.355 fold
Vaginal tissue construct; gene Corneodesmosin
  CDSN Fold Change: 3.011 fold
Vaginal tissue construct; gene C−C motif chemokine ligand 28
  CCL28 Expr Fold Change: −1.948 fold
Vaginal tissue construct; gene FYN binding protein 1
  FYB1 Expr Fold Change: −2.225 fold
Vaginal tissue construct; gene Interferon Epsilon
  IFNE Fold Change: 2.1 fold
Vaginal tissue construct; gene NLR family pyrin domain containing 10
  NLRP10 Fold Change: 4.199 fold
Vaginal tissue construct; gene RNAse family
  RNAse7 Fold Change: 3.387 fold
Vaginal tissue construct; gene TNF receptor superfamily member 10c
  TNFRSF10C Expr Fold Change: −2.162 fold
Vaginal tissue construct; gene Transglutaminase 1
  TGM1 Fold Change: 1.406 fold
Vaginal tissue construct; gene Transglutaminase 3
  TGM3 Fold Change: 15.681 fold
Vaginal tissue construct; gene Transglutaminase 5
  TGM5 Fold Change: 1.135 fold
Vaginal tissue construct; gene V-set domain containing T cell activation inhibitor 1
  VTCN1 Expr Fold Change: −2.364 fold
Vaginal tissue construct; gene WAP four-disulfide core domain 5
  WFDC5 Fold Change: 1.2 fold
Vaginal tissue construct; gene arachidonate 12-lipoxygenase, 12R type
  ALOX12B Fold Change: 2.207 fold
Vaginal tissue construct; gene arachidonate lipoxygenase 3
  ALOXE3 Fold Change: 1.371 fold
Vaginal tissue construct; gene colony stimulating factor 2 receptor beta common subunit
  CSF2RB Expr Fold Change: 1.517 fold
Vaginal tissue construct; gene cornifelin
  CNFN Fold Change: 1.3 fold
Vaginal tissue construct; gene dermokine
  DMKN Fold Change: 2.428 fold
Vaginal tissue construct; gene descmocollin 3
  DCS3 Fold Change: 1.2 fold
Vaginal tissue construct; gene desmocollin 1
  DSC1 Fold Change: 1.673 fold
Vaginal tissue construct; gene desmocollin 2
  DSC2 Fold Change: 1.3 fold
Vaginal tissue construct; gene desmoglein 1
  DSG1 Fold Change: 4.964 fold
Vaginal tissue construct; gene filaggrin
  FLG Fold Change: 3.212 fold
Vaginal tissue construct; gene filaggrin family member 2
  FLG2 Fold Change: 2.766 fold
Vaginal tissue construct; gene human keratinocyte proline rich protein
  KPRP Fold Change: 5.557 fold
Vaginal tissue construct; gene interleukin 23 subunit alpha
  IL23A Expr Fold Change: 2.912 fold
Vaginal tissue construct; gene interleukin 36 alpha
  IL36A Expr Fold Change: 3.409 fold
Vaginal tissue construct; gene interleukin 36 receptor antagonist
  IL36RN Expr Fold Change: 2.751 fold
Vaginal tissue construct; gene kallikrein related peptidase 6
  KLK6 Fold Change: 2.769 fold
Vaginal tissue construct; gene kallikrein related peptidase 8
  KLK8 Fold Change: 1.831 fold
Vaginal tissue construct; gene kallikrein related peptidase 10
  KLK10 Fold Change: 2.043 fold
Vaginal tissue construct; gene kallikrein related peptidase 12
  KLK12 Fold Change: 4.018 fold
Vaginal tissue construct; gene kallikrein related peptidase 13
  KLK13 Fold Change: 4.626 fold
Vaginal tissue construct; gene keratin 1
  KRT1 Fold Change: 1.949 fold
Vaginal tissue construct; gene keratin 2
  KRT2 Fold Change: 1.214 fold
Vaginal tissue construct; gene keratin 20
  KRT20 Fold Change: −3.702 fold
Vaginal tissue construct; gene keratin 23
  KRT23 Fold Change: 1.891 fold
Vaginal tissue construct; gene keratin 24
  KRT24 Fold Change: 1.673 fold
Vaginal tissue construct; gene keratinocyte differentiation associated protein
  KRTDAP Fold Change: 13.936 fold
Vaginal tissue construct; gene late cornified envelope 1A
  LCE1A Fold Change: 1.307 fold
Vaginal tissue construct; gene late cornified envelope 1C
  LCE1C Fold Change: 1.262 fold
Vaginal tissue construct; gene late cornified envelope 1F
  LCE1F Fold Change: 1.317 fold
Vaginal tissue construct; gene late cornified envelope 2A
  LCE2A Fold Change: 2.026 fold
Vaginal tissue construct; gene late cornified envelope 2B
  LCE2B Fold Change: 1.89 fold
Vaginal tissue construct; gene late cornified envelope 2D
  LCE2C/LCE2D Fold Change: 1.903 fold
Vaginal tissue construct; gene late cornified envelope 5A
  LCE5A Fold Change: 1.454 fold
Vaginal tissue construct; gene lipase family member M
  LIPM Fold Change: 3.572 fold
Vaginal tissue construct; gene lipase family member N
  LIPN Fold Change: 4.57 fold
Vaginal tissue construct; gene lipin 1
  LIPN1 Fold Change: 2.831 fold
Vaginal tissue construct; gene loricrin
  LOR Fold Change: 1.207 fold
Vaginal tissue construct; gene major histocompatibility complex, class II, DP alpha 1
  HLA-DPA1 Expr Fold Change: −1.8 fold
Vaginal tissue construct; gene major histocompatibility complex, class II, DR alpha
  HLA-DRA Expr Fold Change: −2.234 fold
Vaginal tissue construct; gene major histocompatibility complex, class II, DR beta 6 (pseudogene)
  HLA-DRB6 Expr Fold Change: −2.5 fold
Vaginal tissue construct; gene mucin like 1
  MUCL1 Fold Change: 2.857 fold
Vaginal tissue construct; gene phospholipase A2 group IIF
  PLA2G2F Fold Change: 1.824 fold
Vaginal tissue construct; gene phospholipase A2 group III
  PLA2G3 Fold Change: 1.64 fold
Vaginal tissue construct; gene phospholipase A2 group IVD
  PLA2G4D Fold Change: 2.046 fold
Vaginal tissue construct; gene phospholipase A2 group IVE
  PLA2G4E Fold Change: 2.442 fold
Vaginal tissue construct; gene phospholipase A2 group X
  PLA2G10 Fold Change: −2.948 fold
Vaginal tissue construct; gene serpin family B member 12
  SERPINB12 Fold Change: 1.3 fold
Vaginal tissue construct; gene small proline rich protein 2G
  SPRR2G Fold Change: 4.664 fold
Vaginal tissue construct; gene small proline rich protein 4
  SPRR4 Fold Change: 2.669 fold
Vaginal tissue construct; gene solute carrier family 44 member 4
  SLC44A4 Fold Change: −1.8 fold
Vaginal tissue construct; gene suprabasin
  SBSN Fold Change: 3.449 fold
Vaginal tissue construct; gene toll like receptor 3
  TLR3 Expr Fold Change: −2.081 fold
Vaginal tissue construct; gene transient receptor potential cation channel subfamily V member 3
  TRPV3 Fold Change: 1.6 fold
Vaginal tissue construct; listed as estradiol
  VEGFA Fold Change: 2.2 fold
Vaginal tissue construct; result in words
  HLA-DMA expression: down-regulate
  HLA-DMB expression: down-regulate
EpiVaginal tissues
  macrophages infiltrated into the tissue past 90 μm: 16%
